{"source": "patent US20240173317A1", "about": "“METHODS FOR TREATING PROGRESSIVE FAMILIAL INTRAHEPATIC CHOLESTASIS” (MIRUM PHARMACEUTICALS, INC., priority 2022, published 2024)", "key": {"[1]": {"test_system": "subjects with PFIC", "test": "EDQ(Obs) sleep disturbance score, MARCH-PFIC Phase 3 study", "type": "in vivo, human", "settings": "All-PFIC; FIG. 27D", "description": "The terms “EDQ(Obs)”, “EDQ(Pt)”, and “EDQ” as used herein, refer to Exploratory Diary Questionnaire that are used to assess pruritus in children under the age of 18 or adults of at least 18 years of age. EDQ is a caregiver/patient reported outcome measure administered as a twice daily electronic diary. EDQ contained a question about sleep related to pruritus: “because of itch, my child had trouble staying asleep. 1—Never, 2—Rarely, 3—ometimes, 4—Often, or 5—Almost Always.” Caregivers for all subjects aged <9 years completed the Observer instrument: EDQ(Obs). Subjects ≥9 years of age completed the patient instrument: EDQ(Pt). EDQ includes questions on sleep disturbances related to pruritus.\nExploratory Diary Questionnaire. Pruritus was assessed using the EDQ caregiver/patient reported outcome measure administered as a twice daily electronic diary. […] Pruritus was assessed and recorded twice daily by subjects or caregivers, via EDQ, beginning with the day after the screening visit and every day throughout the duration of the study, as described in Table 2.\nMethods: Participants were randomized to receive MRX 570 μg/kg BID or placebo (PBO) (FIG. 27A). The primary analysis evaluated pruritus as assessed by the caregiver using ItchRO(Obs) 0-4 scale; as well as by physician using the Clinician Scratch Scale (CSS). Sleep was assessed using the Exploratory Diary Questionnaire (Observer) (EDQ[Obs]). […]"}, "[2]": {"test_system": "patients with PFIC", "test": "Bilirubin, MARCH-ON long-term extension", "type": "in vivo, human", "settings": "MRX-MRX group; Baseline through Week 52", "description": "(§1) Eighty-five patients from MARCH trial enrolled in MARCH-ON (Table 10, FIG. 29A). Forty-seven patients had received Maralixibat (MRX-MRX) and 38 had received placebo (PBO-MRX) during MARCH trial.\n(§2) PFIC subtypes of patients included in the study were: non-truncated bile salt export pump (nt-B SEP, n=27), familial intrahepatic cholestasis-associated protein type 1 (F1C1, n=13); multidrug-resistance 3 protein (MDR3, n=9); tight junction protein 2 (TJP2, n=6); myosin VB (MYO5B, n=2); heterozygosis (n=2); truncated B SEP (t-B SEP, n=9); variant not found (n=8), fluctuating sBA (n=2); and surgery (n=7). Efficacy analyses included n=33 in the MRX-MRX group and n=24 in the PRO-MRX group. Subtypes nt-BSEP, F1C1, MDR3, TJP2, and MYO5B were included in the efficacy analyses. Baseline was defined as the start of maralixibat (MRX) treatment for each group.\nMethods: Long-term maintenance of response was assessed for patients who were originally randomized to receive MRX in MARCH and continued with treatment in MARCH-ON (MRX-MRX group; n=33). MRX response was assessed for patients who received PBO in the MARCH study and switched to open-label MRX in MARCH-ON (PBO-MRX group; n=24). Assessments included: pruritus measured by 0-4 scale of ItchRO[Obs], sBA, bilirubin, and growth z-scores, as well as incidence of treatment-emergent adverse events(TEAEs). […]"}, "[3]": {"test": "Growth z-scores (height, weight), MARCH-ON long-term extension", "type": "in vivo, human", "description": "as §1, §2\nMethods: Long-term maintenance of response was assessed for patients who were originally randomized to receive MRX in MARCH and continued with treatment in MARCH-ON (MRX-MRX group; n=33). MRX response was assessed for patients who received PBO in the MARCH study and switched to open-label MRX in MARCH-ON (PBO-MRX group; n=24). Assessments included: pruritus measured by 0-4 scale of ItchRO[Obs], sBA, bilirubin, and growth z-scores, as well as incidence of treatment-emergent adverse events(TEAEs). Baseline (BL) was defined as the start of MRX for each group."}, "[4]": {"test_system": "participants with ALGS", "test": "ItchRO(Obs) pruritus in participants with ALGS aged 16 years and older", "type": "in vivo, human", "method": "(§3) All patients received the daily dose appropriate for their weight, with an adult maximum dose of 28.5 mg/d. ^bBefore age 16 years is defined as the last data point prior to turning 16 years of age. After age 16 years is defined as the first data point after turning 16 years of age.\n(§4) FIGS. 31A and 31B show a change in ltchRO(Obs) (FIG. 31A) and sBA (FIG. 31B) for participants who initiated MRX treatment at <16 years of age (n=11). Of 11 participants, 9 had ItchRO(Obs) scores available for all time points and were included in the analysis. ^bItchRO(Obs) is a 0-4 scale with >1-point reduction considered clinically meaningful. Mean ItchRO(Obs) was rounded to 1 decimal place. Error bars represent SE. Significance was determined using student t test. ^cMean sBA was rounded to the nearest whole number. Error bars represent SE. ^dAverage of last 2 records prior to age 16 years. ^eAverage of first 2 records after age 16 years. ^fAverage of final 2 records.\n(§5) FIGS. 32A and 32B show a change in ltchRO(Obs) (FIG. 32A) and sBA (FIG. 32B) for participants who Initiated MRX treatment at ≥16 years of age (n=3). ^aItchRO(Obs) is 0-4 scale with ≥1-point reduction considered clinically meaningful. ^bAverage of final two records.\n(§6) The efficacy and safety of MRX in participants with ALGS aged ≥16 years transitioning to adult care and participant aged ≥16 years who initiate MRX treatment were studied (FIG. 30). […]"}, "[5]": {"test_system": "participants with ALGS", "test": "sBA in participants with ALGS aged 16 years and older", "type": "in vivo, human", "method": "as §3, §4, §5, §6"}, "[6]": {"test_system": "participants with PFIC 1 or PFIC 2", "settings": "cited from earlier work"}, "[7]": {"settings": "MRX-MRX group (n = 20), Baseline to Week 52"}, "[8]": {"settings": "PBO-MRX group (n = 15), Baseline to Week 26"}}, "note": "Read-outs that look alike come from different tables or passages of the source."}
{"smiles": "CCCCC1(CCCC)CS(=O)(=O)c2ccc(N(C)C)cc2[C@@H](c2ccc(OCc3ccc(C[N+]45CCN(CC4)CC5)cc3)cc2)[C@H]1O", "note": "[maralixibat, 1-(4-((4-((4R,5R)-3,3-dibutyl-7-(dimethylamino)-4-hydroxy-1,1-dioxido-2,3,4,5-tetrahydrobenzo[b]thiepin-5-yl)phenoxy)methyl)benzyl)-1,4-diazabicyclo[2.2.2]octan-1-ium]", "values": [{"measurement": "CFB in sleep (EDQ(Obs)), difference MRX vs PBO, delta [95% CI]", "setting": "[1]", "value": "significant improvements"}, {"measurement": "bilirubin, change from Baseline", "setting": "[2]", "value": -2.64, "unit": "mg/dL"}, {"measurement": "Height Z-score, mean change from Baseline", "setting": "[3]; [7]", "value": "+0.54"}, {"measurement": "Weight Z-score, mean change from Baseline", "setting": "[3]; [7]", "value": "+0.44"}, {"measurement": "Height Z-score, mean change from Baseline", "setting": "[3]; [8]", "value": "+0.46"}, {"measurement": "Weight Z-score, mean change from Baseline", "setting": "[3]; [8]", "value": "+0.09"}, {"measurement": "improvements in pruritus (ItchRO(Obs))", "setting": "[4]; MRX during childhood, maintained into early adulthood, FIG. 31A", "value": "significant improvements"}, {"measurement": "improvements in pruritus (ItchRO(Obs))", "setting": "[4]; participants receiving MRX in early adulthood, FIG. 32A", "value": "significant improvements"}, {"measurement": "improvements in sBA", "setting": "[5]; MRX during childhood, maintained into early adulthood, FIG. 31B", "value": "significant improvements"}, {"measurement": "improvements in sBA", "setting": "[5]; participants receiving MRX in early adulthood, FIG. 32B", "value": "significant improvements"}, {"measurement": "response in Indigo Phase 2 study", "setting": "[6]; participants with PFIC 2", "value": "had a response"}, {"measurement": "response in Indigo Phase 2 study", "setting": "[6]; patients with PFIC 1", "value": "did not have a response"}]}
